Data taken from patent US20220073532A1, “INHIBITORS OF CGAS ACTIVITY AS THERAPEUTIC AGENTS” (BELLBROOK LABS, LLC, priority 2019, published 2022).
In brackets after ≈: the same amount, converted by molar mass. Like-named read-outs stand apart in the source and are kept apart here.

Key:
Ksol (PBS, pH 7.4) = assay type: physicochemical; conditions: pH 7.4, aqueous buffer, kinetic from dmso stock
[1] = Mouse microsomal stability (NADPH); assay type: in vitro ADME; conditions: liver microsomes, read-out: Mouse MS Stability (NADPH) t1/2
Description: (§1) ADME/PK: Compounds are tested in Caco-2 and MDR1-MDCK permeability assays to provide a measure of intestinal absorption, blood-brain-permeability and efflux by P-glycoprotein (P-gp), a frequent obstacle to effective CNS delivery. CNS drugs are associated with high passive membrane permeability (Papp>1×10^−6 cm/sec) and have low efflux ratios (Papp(B-A)/Papp(A-B)<2.5). Metabolic stability is tested using mouse and human liver microsomes incubated with NADPH for CYP-dependent metabolism and with UDPGA for glucuronidation. Compounds are tested for pharmacokinetics and brain penetration in mice using oral, intravenous and intraperitoneal administration.

[2] = test system: MDCK-MDR (Madin-Darby Canine Kidney cells-Multi Drug Resistance pump); experiment: MDCK-MDR permeability; assay type: in vitro ADME
Description: as §1

MDR1 (P-glycoprotein) = experiment: MDCK-MDR permeability; assay type: in vitro ADME, canine; conditions: dog, MDCK-MDR1
Description: as §1

[3] = test system: Kinase, PDE, GTPase, ENPP1 (Abl1, PKA, TBK1, Rac1, PDE4A, ENPP1); experiment: Selectivity panel of nucleotide-utilizing enzymes; assay type: biochemical
Description: Selectivity profiling: A panel of nucleotide-utilizing enzymes that included kinases (Abl1, PKA, TBK1—which transduces cGAS/STING signals, see FIG. 5A) a GTPase (Rac1), a phosphodiesterase (PDE4A), and ENPP1, a nucleotidase that degrades cGAMP, was used preliminarily. cGAS assays were used to perform dose response measurements with cGAS inhibitors. In addition to these enzymes, inhibitors are tested with three other members of the oligoadenylate synthases (OAS), nucleic acid sensors that activate innate immunity via production of short, 2′-5′ oligoadenylate second messengers. Methods for expression and purification of the human and/or porcine enzymes in E. coli or baculovirus-infected insect cells have been developed as well as a simple, absorbance-based assay using commercially available pyrophosphate kit. In addition, an FP-based assay (competitive displacement of a fluor-cGAMP tracer) is developed to test compounds as ligands for STING (which could be one explanation for the partial activity of Compound 15 in cells stimulated with cGAMP) (FIG. 5).

THP1 cGAS KO cells = experiment: Specificity test in THP-Dual cGAS knockout cells; assay type: cell-based, human
Text: FIG. 5 includes (A) a schematic showing the THP1 dual-cell reporter system: secreted luciferase reports on IRF3-driven transcription; secreted alkaline phosphatase reports on NFκB-driven transcription, both downstream of cGAS/STING. THP-Dual cGAS knockout cells are used to test for non-specific effects; (B) a plot of the dose response for inhibition of Luc expression by Compound 15; (C) a plot of the dose response for inhibition of Luc expression by the TBK1 inhibitor, BX-795; and (D) a plot of the dose response for inhibition of SEAP expression by Compound 15.
IFN induction in human monocyte cell lines: The human monocyte cell line THP-1 gives a robust cGAS/STING-dependent type I IFN response and has been used extensively for studies on the pathway. Typically, cells are stimulated by transfection with dsDNA and gene expression is assessed using an ELISA for IFNβ, a reporter gene assay, and/or cGAS/STING pathway markers such as STING phosphorylation. These assays were validated using the TBK1 inhibitor, BX-795, which acts downstream of cGAS/STING, as a probe; THP-1 Dual cells (Invivogen, San Diego) are used as the reporter cell line for routine compound testing (FIG. 5A). These assays were optimized, including equalizing responses with transfected DNA and cGAMP and comparing responses between undifferentiated cells and cells that have been differentiated to macrophages (which show little difference). […] Stimulation of THP-1 Dual cells with damage-associated molecular pattern molecules (DAMPs) that act through pattern recognition receptors other than cGAS provides another way to confirm the specificity of putative cGAS inhibitors.

cGAS = cGAS (Homo sapiens, UniProt Q8N884); experiment: cGAS enzymatic assay (FP/TR-FRET detection of cGAMP); assay type: biochemical; set-up: The cGAS assay was used to screen 100,000 compounds with full-length human cGAS; 6xHis; made in house
How it was run: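 Homogeneous enzymatic assay with FP and TR-FRET read-outs, full-length enzyme at 30 nM. IC50 from dose-response under basal conditions (5 mM MgCl2, 100 μM ATP/GTP), also with 0.2 mM Mn added; values reported as letter bins from A (<100 nM) to E (>10 μM).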

cGAS, sequence (Q8N884 whole entry): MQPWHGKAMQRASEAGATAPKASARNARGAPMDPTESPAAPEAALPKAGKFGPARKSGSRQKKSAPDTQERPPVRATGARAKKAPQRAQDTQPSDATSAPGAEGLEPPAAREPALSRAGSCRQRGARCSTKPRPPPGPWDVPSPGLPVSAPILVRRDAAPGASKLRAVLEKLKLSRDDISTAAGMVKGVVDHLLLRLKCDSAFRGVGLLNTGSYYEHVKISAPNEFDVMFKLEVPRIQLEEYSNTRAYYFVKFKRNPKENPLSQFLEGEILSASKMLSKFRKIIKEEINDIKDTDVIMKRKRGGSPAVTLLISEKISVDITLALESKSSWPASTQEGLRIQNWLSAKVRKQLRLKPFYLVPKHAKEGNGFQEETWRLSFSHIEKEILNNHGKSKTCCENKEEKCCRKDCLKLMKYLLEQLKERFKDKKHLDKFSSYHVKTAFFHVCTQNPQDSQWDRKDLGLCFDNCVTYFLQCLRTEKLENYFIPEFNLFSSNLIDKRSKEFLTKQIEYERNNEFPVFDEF

Cc1nc(N2CCC[C@H]2C(=O)O)c2oc3ccccc3c2n1 [Compound 15, (2-methylbenzofuro[3,2-d]pyrimidin-4-yl)-L-proline]
solubility kinetic (Ksol (PBS, pH 7.4)): 520 µM (≈ 155 µg/mL)
half-life [1]: > 2 h
MDR-1-mediated export [2]: no indication of MDR-1-mediated export
efflux ratio (MDR1 (P-glycoprotein)): 0.4
Papp A→B (MDR1 (P-glycoprotein); A→B): 9.8 ×10⁻⁶ cm/s
Off-Target Activity (Kinase, PDE, GTPase, ENPP1) [3]: None
inhibitory activity with a panel of nucleotide-utilizing enzymes ([3]; at 200 μM): lack of inhibitory activity
effect on IRF3-driven Luc expression in THP1 cGAS KO cells stimulated with LPS (THP1 cGAS KO cells; LPS-stimulated, cGAS KO): no effect
inhibition in cGAMP-stimulated cells lacking cGAS (THP1 cGAS KO cells; cGAMP-stimulated, cGAS knockout): essentially no inhibition
IC50 (cGAS; 5 mM Mg^2+, 0.2 mM Mn^2+, read-out: IC50 (5 mM Mg^2+, 0.2 mM Mn^2+)): 10800 ± 2400 nM
IC50 (cGAS; 5 mM Mg^2+, read-out: IC50 (5 mM Mg^2+)): 1260 ± 570 nM
IC50 (cGAS; cGAS (30 nM), with Mn^2+, read-out: Inhibition cGAS + Mn^2+): 1000 to 10000 nM
IC50 (cGAS; cGAS (30 nM), read-out: Inhibition cGAS): 500 to 1000 nM
MOA (cGAS; competition with ATP): ATP Competitive
